From ChEMBL document CHEMBL3272129, “Synthesis of 3-(4-acylaminopiperazin-1-ylalkyl)indoles as potential antihypertensive agents” (1977)
Activity calls are given as the source filed them. No cut-off for these calls is given here.

Experiments:
Format in all cases: functional
Rattus norvegicus [1] = experiment: Antihypertensive activity in spontaneous hypertensive rat model assessed as change in blood pressure at 100 mg/kg, po on day 1 and 3 measured 2 hrs post dose on day 1 by standard 3-day test
Rattus norvegicus [2] = experiment: Antihypertensive activity in spontaneous hypertensive rat model assessed as change in blood pressure at 100 mg/kg, po on day 1 and 3 measured 2 hrs post dose on day 3 by standard 3-day test
Rattus norvegicus [3] = experiment: Antihypertensive activity in spontaneous hypertensive rat model assessed as change in blood pressure at 50 mg/kg, po on day 1 and 3 measured 2 hrs post dose on day 3 by standard 3-day test

Compound	Activity (Rattus norvegicus [1])	Activity (Rattus norvegicus [2])	Activity (Rattus norvegicus [3]) [mmHg]
COc1cc2[nH]c(C)c(CCN3CCN(NC(=O)c4ccccc4OC)CC3)c2cc1OC.Cl	4 mmHg	15 mmHg	–
COc1cc2[nH]c(C)c(CCN3CCN(NC(=O)c4ccccc4)CC3)c2cc1OC	9 mmHg	12 mmHg	–
O=C(NN1CCN(CCc2c[nH]c3ccccc23)CC1)c1ccc(F)cc1	56 mmHg	57 mmHg	–
O=C(NN1CCN(Cc2c[nH]c3ccccc23)CC1)c1ccccc1	Active	Active	–
Cc1[nH]c2ccccc2c1CCN1CCN(NC(=O)c2ccc([N+](=O)[O-])cc2)CC1	25 mmHg	20 mmHg	–
Cc1ccccc1C(=O)NN1CCN(CCc2c[nH]c3ccccc23)CC1	19 mmHg	19 mmHg	–
COc1ccccc1C(=O)NN1CCN(CCc2c[nH]c3ccccc23)CC1	7 mmHg	23 mmHg	–
O=C(NN1CCN(CCc2c[nH]c3ccccc23)CC1)C1CCCCC1	37 mmHg	35 mmHg	–
COc1cc(C(=O)NN2CCN(CCc3c[nH]c4ccccc34)CC2)cc(OC)c1OC	63 mmHg	70 mmHg	–
CC(=O)NN1CCN(CCc2c[nH]c3ccccc23)CC1	32 mmHg	40 mmHg	–
Cc1ccc(C(=O)NN2CCN(CCc3c[nH]c4ccccc34)CC2)cc1	18 mmHg	43 mmHg	–
Cl.O=C(NC1CCN(CCc2c[nH]c3ccccc23)CC1)c1ccccc1 [INDORAMIN HYDROCHLORIDE]	63 mmHg	–	79
O=C(NN1CCN(CC(O)c2c[nH]c3ccccc23)CC1)c1ccccc1 (racemic)	30 mmHg	33 mmHg	–
COc1cc(C(=O)NN2CCN(Cc3c[nH]c4ccccc34)CC2)cc(OC)c1OC	20 mmHg	36 mmHg	–
O=C(NN1CCN(CCc2c[nH]c3ccccc23)CC1)c1ccco1	58 mmHg	64 mmHg	–
O=C(NN1CCN(CCc2c[nH]c3ccccc23)CC1)c1cccc(C(F)(F)F)c1	49 mmHg	19 mmHg	–
O.O=C(NN1CCN(CCc2c[nH]c3ccccc23)CC1)c1ccccc1	24 mmHg	56 mmHg	–

Compound	Activity (Rattus norvegicus [1])	Activity (Rattus norvegicus [2])	Activity (Rattus norvegicus [3]) [mmHg]
COc1cccc(C(=O)NN2CCN(CCc3c[nH]c4ccccc34)CC2)c1	21 mmHg	2 mmHg	–
O=C(NN1CCN(CCc2c[nH]c3ccccc23)CC1)C(c1ccccc1)c1ccccc1	3 mmHg	10 mmHg	–
O=C(NN1CCN(CCc2c[nH]c3ccccc23)CC1)c1ccc(Cl)cc1	17 mmHg	22 mmHg	–
O=C(NN1CCN(CCc2c[nH]c3ccccc23)CC1)c1ccccc1F	47 mmHg	56 mmHg	–
COc1cc(OC)cc(C(=O)NN2CCN(CCc3c[nH]c4ccccc34)CC2)c1	46 mmHg	111 mmHg	–
Cc1cccc(C(=O)NN2CCN(CCc3c[nH]c4ccccc34)CC2)c1	17 mmHg	26 mmHg	–
O=C(NN1CCN(CCc2c[nH]c3ccccc23)CC1)c1ccc(C(F)(F)F)cc1	9 mmHg	36 mmHg	–
COc1ccc(C(=O)NN2CCN(CCc3c[nH]c4ccccc34)CC2)cc1	25 mmHg	19 mmHg	–
O=C(NN1CCN(CCc2c[nH]c3ccccc23)CC1)c1ccc([N+](=O)[O-])cc1	17 mmHg	16 mmHg	–
COc1cc2[nH]c(C)c(CCN3CCN(NC(=O)c4ccc(C(F)(F)F)cc4)CC3)c2cc1OC.Cl	2 mmHg	5 mmHg	–
Cc1[nH]c2ccccc2c1CCN1CCN(NC(=O)c2ccc(F)cc2)CC1	29 mmHg	25 mmHg	–
O=C(NN1CCN(CCc2c[nH]c3ccccc23)CC1)C1CC2CCC1C2 (stereo unspecified)	20 mmHg	11 mmHg	–
O=C(NN1CCN(Cc2c[nH]c3ccccc23)CC1)c1ccc(F)cc1	Active	Active	–
Cc1[nH]c2ccccc2c1CCN1CCN(NC(=O)c2ccccc2)CC1	39 mmHg	37 mmHg	–
COc1cc2[nH]c(C)c(CCN3CCN(NC(=O)c4ccc(F)cc4)CC3)c2cc1OC	9 mmHg	23 mmHg	–
O=C(NN1CCN(CCc2c[nH]c3ccccc23)CC1)c1ccncc1	23 mmHg	24 mmHg	–
